In patent US20170071922A1, “ARTIFICIAL SKIN” (Shiseido Company, Ltd., priority 2010, published 2017):

System: skin model (EFT-400, MatTeK)
Experiment: Electron microscope observation of skin model cultured with MMP inhibitor and/or heparanase inhibitor
Format: cell-based, human
Conditions: electron micrographs; result in words
Method: A skin model (EFT-400, MatTeK) was cultured in a specialized medium (EFT-400-ASY, MatTeK). Dimethylsulfoxide (DMSO) and ethanol were added to the specialized medium to a final concentration of 0.1% to serve as a control group, 50 mM 1-[4-(1H-benzoimidazol-2-yl)-phenyl]-3-[4-(1H-benzoimidazol-2-yl)-phenyl]-urea (DMSO solvent) was added to the specialized medium to a final concentration of 50 μM to serve as a heparanase inhibitor group, 10 mM N-hydroxy-2-[[(4-methoxyphenyl)sulfonyl] (3-picolyl)amino]-3-methylbutanamide hydrochloride (CGS27023A, ethanol solvent) was added to the specialized medium to a final concentration of 10 μM to serve as an MMP inhibitor group, and 50 mM 1-[4-(1H-benzoimidazol-2-yl)-phenyl]-3-[4-(1H-benzoimidazol-2-yl)-phenyl]-urea (DMSO solvent) and 10 mM CGS27023A (ethanol solvent) were added to the specialized medium to a final concentration of 50 μM and 10 μM, respectively, to serve as a heparanase inhibitor+MMP inhibitor group, followed by culturing.
The aforementioned skin model was cut in half after culturing, fixed with Zamboni's fixative and post-fixed with osmic acid, followed by embedding in resin in accordance with established methods. Tissues were observed by preparing ultra-thin sections and staining with uranyl acetate followed by observing with an electron microscope (JEM-1230, JEOL). […]

Compound	fibroblasts present in dermis directly beneath basement membrane (FIG. 2)
O=C(Nc1ccc(-c2nc3ccccc3[nH]2)cc1)Nc1ccc(-c2nc3ccccc3[nH]2)cc1 [Group B, 1-[4-(1H-benzoimidazol-2-yl)-phenyl]-3-[4-(1H-benzoimidazol-2-yl)-phenyl]-urea]	normal fibroblasts
COc1ccc(S(=O)(=O)N(Cc2cccnc2)C(C(=O)NO)C(C)C)cc1.Cl (centres unmarked) [Group A, N-hydroxy-2-[[(4-methoxyphenyl)sulfonyl](3-picolyl)amino]-3-methylbutanamide hydrochloride]	normal fibroblasts
